Results: patent US12161632B2, “Compositions and methods of treating cardiac fibrosis with ifetroban” (Cumberland Pharmaceuticals Inc., priority 2014, dated 2024)
Structures can show the parent of a compound that is named as a salt.

What was measured:
[1] = system: RV monocytes / macrophages; experiment: Cardiac monocytes: LysM-Cre lineage tracing and flow cytometry of RV (Example VII); type: in vivo, mice; conditions: LysM-Cre reporter mice, aspirin
Description: Both male and female age-matched C57Bl/6 or FVB/NJ mice, obtained by in-house breeding, were used for pulmonary artery banding. LysM-GFP mice were obtained by cross-breeding LysM-Cre×mTomato/GFP reporter mice B6.129P2-Lyz2tm1(cre)Ifo/J (a gift from Tim Blackwell)×Gt(ROSA)26Sortm4(ACTB-tdTomato, -EGFP)Luo (JAX stock #007676). The day following surgery, mice were given either 25 mg/kg/day IFETROBAN (Cumberland Pharmaceuticals Inc., Nashville, TN) in drinking water or normal drinking water (vehicle) for 2 weeks or 6 weeks prior to hemodynamic evaluation. Mice were weighed and water was changed once a week.
TP receptors are also expressed on monocytes, and blockade of these receptors may have immune-specific effects. To determine whether the decrease in fibrosis seen with TP receptor inhibition was due to decreased macrophage infiltration or proliferation in the RV, PAB on LysM-Cre mice expressing eGFP under the LysozymeM promoter was performed, where all cells that have ever had monocyte lineage are labeled with GFP, even if they have later differentiated. […] Transgenic LysM-Cre×flox-mTomato-flox eGFP mice were used to label cells of monocyte derivation in the RV. These mice express a fluorescent red, except in cells derived from monocyte lineage (even if they have later differentiated), which express a fluorescent green. […] Flow sorting of whole RV for circulating markers found a non-significant trend towards an increase in PA-banded mice that was blocked by ifetroban.

[2] = system: pulmonary artery banding (PAB) model of right ventricular pressure overload; experiment: PAB model of right ventricular pressure overload: hemodynamics, echocardiography, histology (Example VII); type: in vivo; conditions: PAB mice
[3] = system: right ventricle gene expression; experiment: Right ventricle gene expression, Affymetrix Mouse Gene 2.0 arrays (Example IV); type: in vivo, mice; conditions: sham surgery mice, 25 mg/kg/day, 2 weeks
Description: FVB/N mice or mice with a GFP macrophage-specific lineage tracing marker (LysM-Cre) underwent pulmonary banding to directly increase load stress (or sham surgery for controls), and starting the following day received either vehicle or the thromboxane receptor antagonist Ifetroban sodium in their drinking water (25 mg/kg/day). After 2 weeks, noninvasive hemodynamics were obtained by transthoracic echocardiography and invasive hemodynamics were obtained by pressure-volume catheterization of the right heart prior to sacrifice. Hearts were assessed for fibrosis and macrophage infiltration. RNA from right ventricles were isolated and used for unbiased discovery of altered gene expression using Affymetrix Mouse Gene 2.0 arrays performed on four groups (banded or sham). LysM-Cre mouse hearts were flash-frozen whole, cross-sectioned, and assessed by microscopy for fibrosis and macrophage infiltration. Differences between groups were assessed by ANOVA and t-tests. Correlations were assessed by Spearman correlation.

SMILES	number of RV monocytes / green (monocyte lineage) cells after PAB [1]	number of RV monocytes / green (monocyte lineage) cells after PAB ([1]; listed as ASA)	replication of the ifetroban results (fibrosis, hypertrophy, TSP-4, TGF-beta) ([2]; low-dose aspirin)	RV fibrosis (Masson's trichrome) ([2]; oral aspirin 10 mg/kg/day, 2 weeks)	the same expression changes in the sham surgery group [3]
CC(=O)Oc1ccccc1C(=O)O [aspirin]	appeared to increase the number of RV monocytes	significantly increases numbers of green cells	failed to replicate these results	failed to prevent fibrosis	
CCCCCNC(=O)c1coc([C@H]2[C@@H](Cc3ccccc3CCC(=O)O)[C@@H]3CC[C@H]2O3)n1 [Ifetroban sodium, [1S-(1α,2α,3α,4α)]-2-[[3-[4-[(Pentylamino)carbonyl]-2-oxazolyl]-7-oxabicyclo[2.2.1]hept-2-yl]methyl]-benzenepropanoic acid, monosodium salt]					not found in the sham surgery group
